Reference: US12428415B2, “Matriptase 2 inhibitors and uses thereof” (Disc Medicine, Inc., priority 2018, dated 2025)

target: T1, Human Recombinant Matriptase 2 (Homo sapiens, UniProt Q8IU80); experiment: Matriptase 2 fluorescence based inhibition assay, Method B (50 mM TRIS pH 7.5, 150 mM NaCl, 0.01% gelatin); type: biochemical; settings: 1 uM compound; Assay Used = B (Method B)
T1 construct: purchased Enzo Life Sciences (an in-house preparation was also used) ALX-201-752-1
T1 sequence (Q8IU80 1-811): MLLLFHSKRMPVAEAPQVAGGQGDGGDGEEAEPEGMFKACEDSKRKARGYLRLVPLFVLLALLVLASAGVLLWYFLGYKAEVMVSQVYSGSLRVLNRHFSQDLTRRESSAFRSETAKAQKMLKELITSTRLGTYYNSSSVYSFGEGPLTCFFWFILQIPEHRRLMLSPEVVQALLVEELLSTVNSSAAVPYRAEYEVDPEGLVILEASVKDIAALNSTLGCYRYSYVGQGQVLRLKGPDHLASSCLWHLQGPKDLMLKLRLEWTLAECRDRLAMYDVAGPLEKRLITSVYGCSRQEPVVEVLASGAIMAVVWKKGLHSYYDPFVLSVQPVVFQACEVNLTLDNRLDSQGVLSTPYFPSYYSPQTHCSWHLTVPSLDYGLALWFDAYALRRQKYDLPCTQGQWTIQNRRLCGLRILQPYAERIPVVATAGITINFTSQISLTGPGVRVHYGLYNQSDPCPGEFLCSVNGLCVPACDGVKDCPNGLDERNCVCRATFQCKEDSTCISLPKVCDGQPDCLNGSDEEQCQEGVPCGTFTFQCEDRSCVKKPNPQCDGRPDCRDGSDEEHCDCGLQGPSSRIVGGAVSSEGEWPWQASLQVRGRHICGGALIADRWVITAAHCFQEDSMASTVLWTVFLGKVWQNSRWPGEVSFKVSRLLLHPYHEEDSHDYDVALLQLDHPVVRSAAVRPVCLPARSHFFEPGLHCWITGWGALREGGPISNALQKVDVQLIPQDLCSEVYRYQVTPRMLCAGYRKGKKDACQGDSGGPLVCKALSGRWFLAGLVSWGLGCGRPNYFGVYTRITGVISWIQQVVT
Method in brief: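 Commercial (7 nM) or in-house (15 nM) enzyme preincubated 30 min with compound at 25° C, then 100 μM Boc-Gln-Ala-Arg-AMC added; fluorescence (Ex 360/Em 480 nm) read at 60 min. 1% DMSO final. IC50 from variable-slope sigmoidal fit of % inhibition.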

Mar-2 % inhibition at 1 uM | SMILES
A (A represents 0%≤I≤25%) | N=C(N)c1ccc2c(CO)c(C(=O)N[C@H]3CC[C@H](N)CC3)n(Cc3cccc4ccccc34)c2c1 [Compound I-619]

same assay, conditions: 1 uM compound; Assay Used = B (Method B); read-out: Mar-2 % inhibition at 1 uM

inhibition at 1 µM [%] | SMILES
50 to 75 | CNC(=O)c1cc2ccc(C(=N)N)cc2n1Cc1cccc2ccccc12 [Compound I-609]
25 to 50 | N=C(N)c1ccc2cc(C(=O)O)n(Cc3cc(Oc4cccnn4)cc4ccccc34)c2c1 [Compound I-610]
50 to 75 | N=C(N)c1ccc2cc(C(=O)OCCO)n(Cc3cccc4ccccc34)c2c1 [Compound I-611]
75 to 100 | Cc1ccc(S(=O)(=O)Oc2cc(Cn3c(C(=O)N[C@H]4CC[C@H](N)CC4)cc4ccc(C(=N)N)cc43)c3ccccc3c2)cc1 [Compound I-614]
75 to 100 | N=C(N)c1ccc2cc(C(=O)N[C@H]3CC[C@H](N)CC3)n(Cc3cc(Oc4ccccc4F)cc4ccccc34)c2c1 [Compound I-615]
0 to 25 | CC1(O)CCC(OC(=O)c2cc3ccc(C(=N)N)cc3n2Cc2cc(Oc3ccccc3)cc3ccccc23)CC1 (stereo not shown) [Compound I-617]
50 to 75 | N=C(N)c1ccc2cc(C(=O)O)n(Cc3cc(Oc4ccncn4)cc4ccccc34)c2c1 [Compound I-618]
0 to 25 | N=C(N)Nc1ccc2cc(C(=O)N[C@H]3CC[C@H](N)CC3)n(Cc3cccc4ccccc34)c2c1 [Compound I-620, N-((1r,4r)-4-aminocyclohexyl)-6-guanidino-1-(naphthalen-1-ylmethyl)-1H-indole-2-carboxamide]
75 to 100 | N=C(N)c1ccc2cc(C(=O)O)n(Cc3cc(OS(=O)(=O)c4ccccc4)cc4ccccc34)c2c1 [Compound I-621]
0 to 25 | CC(C)COC(=O)NC(=N)c1ccc2cc(C(=O)O)n(Cc3cc(Oc4ccccc4)cc4ccccc34)c2c1 [Compound I-622]
50 to 75 | CS(=O)(=O)Oc1cc(Cn2c(C(=O)O)cc3ccc(C(=N)N)cc32)c2ccccc2c1 [Compound I-623]
25 to 50 | CN(C)C(=O)c1cc2ccc(C(=N)N)cc2n1Cc1cccc2ccccc12 [Compound I-624]
50 to 75 | N=C(N)c1ccc2cc(C(=O)O)n(Cc3cc(Oc4cnccn4)cc4ccccc34)c2c1 [Compound I-625]
25 to 50 | N=C(N)c1ccc2cc(C(=O)O)n(Cc3cc(Oc4cccnc4)cc4ccccc34)c2c1 [Compound I-626]
0 to 25 | CCOC(=O)c1cc2ccc(C(=N)NC(=O)OCC(C)C)cc2n1Cc1cc(Oc2ccccc2)cc2ccccc12 [Compound I-627]
75 to 100 | N=C(N)c1ccc2cc(C(=O)O)n(Cc3cc(Oc4ccccn4)cc4ccccc34)c2c1 [Compound I-628]
75 to 100 | N=C(N)c1ccc2cc(C(=O)OCCN)n(Cc3cc(Oc4ccccc4)cc4ccccc34)c2c1 [Compound I-629]
0 to 25 | CCOC(=O)c1cc2ccc(/C(N)=N\O)cc2n1Cc1cc(Oc2ncccn2)cc2ccccc12 [Compound I-630, ethyl (Z)-6-(N′-hydroxycarbamimidoyl)-1-((3-(pyrimidin-2-yloxy)naphthalen-1-yl)methyl)-1H-indole-2-carboxylate]
75 to 100 | N=C(N)c1ccc2cc(C(=O)N[C@H]3CC[C@H](N)CC3)n(Cc3cc(Oc4ccsc4)cc4ccccc34)c2c1 [Compound I-631]
50 to 75 | N=C(N)c1ccc2cc(C(=O)O)n(Cc3cc(Oc4ccncc4)cc4ccccc34)c2c1 [Compound I-632]
75 to 100 | Cc1c(C(=O)N[C@H]2CC[C@H](N)CC2)n(Cc2cccc3ccccc23)c2cc(C(=N)N)ccc12 [Compound I-633]
75 to 100 | N=C(N)c1ccc2cc(C(=O)NCCN)n(Cc3cc(Oc4ccccc4)cc4ccccc34)c2c1 [Compound I-634]
50 to 75 | NCc1ccc2cc(C(=O)N[C@H]3CC[C@H](N)CC3)n(Cc3cc(Oc4ccccc4)cc4ccccc34)c2c1 [Compound I-635]
25 to 50 | NCc1ccc2cc(C(=O)N[C@H]3CC[C@H](N)CC3)n(Cc3cc(S(=O)(=O)c4ccccc4)cc4ccccc34)c2c1 [Compound I-636]
